In US10485235B2, “Aryloxypyrimidinyl ethers as herbicides” (FMC Corporation, priority 2015, dated 2019):

Legend:
Type in all cases: in vivo
[1] = system: barnyardgrass (Echinochloa crus-galli); assay: Test A preemergence, barnyardgrass; conditions: Echinochloa crus-galli, pre-emergence, 240 h, Preemergence, 0 to 100 scale (0 no effect, 100 complete control), read-out: Plant response rating, Barnyardgrass; for pest or weed control at 125 g/ha: 125 g ai/ha; for pest or weed control at 500 g/ha: 500 g ai/ha
Procedure, shortened: (§1)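 Injury was assessed visually about ten days after application, relative to untreated plants, with 0 meaning no effect and 100 complete control. Treatments were soil-directed sprays after sowing (pre) or sprays on seedlings at one to two leaves (post), in loam soil/sand.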

kochia (Kochia scoparia) [2] = assay: Test A preemergence, kochia; conditions: Bassia scoparia, pre-emergence, 240 h, Preemergence, 0 to 100 scale (0 no effect, 100 complete control), read-out: Plant response rating, Kochia; for pest or weed control at 125 g/ha: 125 g ai/ha; for pest or weed control at 500 g/ha: 500 g ai/ha
Procedure, shortened: as §1

[3] = system: ragweed (common ragweed, Ambrosia elatior); assay: Test A preemergence, ragweed; conditions: Ambrosia artemisiifolia, pre-emergence, 240 h, Preemergence, 0 to 100 scale (0 no effect, 100 complete control), read-out: Plant response rating, Ragweed; for pest or weed control at 125 g/ha: 125 g ai/ha; for pest or weed control at 500 g/ha: 500 g ai/ha
Procedure, shortened: as §1

[4] = system: foxtail, giant (giant foxtail, Setaria faberii); assay: Test A preemergence, giant foxtail; conditions: Setaria faberi, pre-emergence, 240 h, Preemergence, 0 to 100 scale (0 no effect, 100 complete control), read-out: Plant response rating, Foxtail, Giant; for pest or weed control at 125 g/ha: 125 g ai/ha; for pest or weed control at 500 g/ha: 500 g ai/ha
Procedure, shortened: as §1

[5] = system: pigweed (Amaranthus retroflexus); assay: Test A preemergence, pigweed; conditions: Amaranthus retroflexus, pre-emergence, 240 h, Preemergence, 0 to 100 scale (0 no effect, 100 complete control), read-out: Plant response rating, Pigweed; for pest or weed control at 125 g/ha: 125 g ai/ha; for pest or weed control at 500 g/ha: 500 g ai/ha
Procedure, shortened: as §1

kochia (Kochia scoparia) [6] = assay: Test A postemergence, kochia; conditions: Bassia scoparia, post-emergence, 240 h, postemergence, 0 to 100 scale, 0 is no effect, 100 is complete control, approximately 10 days, read-out: Plant response rating, Kochia; for pest or weed control at 125 g/ha: 125 g ai/ha; for pest or weed control at 500 g/ha: 500 g ai/ha
Procedure, shortened: as §1

[7] = system: foxtail, giant (giant foxtail, Setaria faberii); assay: Test A postemergence, giant foxtail; conditions: Setaria faberi, post-emergence, 240 h, postemergence, 0 to 100 scale, 0 is no effect, 100 is complete control, approximately 10 days, read-out: Plant response rating, Foxtail, Giant; for pest or weed control at 125 g/ha: 125 g ai/ha; for pest or weed control at 500 g/ha: 500 g ai/ha
Procedure, shortened: as §1

[8] = system: pigweed (Amaranthus retroflexus); assay: Test A postemergence, pigweed; conditions: Amaranthus retroflexus, post-emergence, 240 h, postemergence, 0 to 100 scale, 0 is no effect, 100 is complete control, approximately 10 days, read-out: Plant response rating, Pigweed; for pest or weed control at 125 g/ha: 125 g ai/ha; for pest or weed control at 500 g/ha: 500 g ai/ha
Procedure, shortened: as §1

[9] = system: wheat (Triticum aestivum); assay: Test A postemergence, wheat; conditions: Triticum aestivum, post-emergence, 240 h, postemergence, 0 to 100 scale, 0 is no effect, 100 is complete control, approximately 10 days, read-out: Plant response rating, Wheat; for plant injury at 125 g/ha: 125 g ai/ha; for plant injury at 500 g/ha: 500 g ai/ha
Procedure, shortened: as §1

corn (Zea mays) = assay: Test A postemergence, corn; conditions: Zea mays, post-emergence, 240 h, postemergence, 0 to 100 scale, 0 is no effect, 100 is complete control, approximately 10 days; for Corn plant response rating (crop injury, 0 = no effect, 100 = complete kill) at 125 g/ha: 125 g ai/ha; for Corn plant response rating (crop injury, 0 = no effect, 100 = complete kill) at 500 g/ha: 500 g ai/ha
Procedure, shortened: as §1

[10] = system: galium (catchweed bedstraw, Galium aparine); assay: Test A postemergence, galium; conditions: Galium, post-emergence, 240 h, postemergence, 0 to 100 scale, 0 is no effect, 100 is complete control, approximately 10 days, read-out: Plant response rating, Galium; for pest or weed control at 125 g/ha: 125 g ai/ha; for pest or weed control at 500 g/ha: 500 g ai/ha
Procedure, shortened: as §1

rice (Oryza sativa) = assay: Test B flooded paddy test, rice; conditions: Oryza sativa; 250 g ai/ha, Flood; visual rating after 13 to 15 days; scale 0 to 100, 0 is no effect, 100 is complete control; read-out: Plant response rating, Rice
Procedure, shortened: (§2)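 Visual ratings, 0 = no effect to 100 = complete control, versus controls after 13 to 15 days in greenhouse. Test compounds were added to paddy water kept 3 cm over the soil surface, on plants at 2-leaf stage.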

[11] = system: sedge, umbrella (small-flower umbrella sedge, Cyperus difformis); assay: Test B flooded paddy test, umbrella sedge; conditions: Cyperus difformis; 250 g ai/ha, Flood; visual rating after 13 to 15 days; scale 0 to 100, 0 is no effect, 100 is complete control; read-out: Plant response rating, Sedge, Umbrella
Procedure, shortened: as §2

[12] = system: ducksalad (Heteranthera limosa); assay: Test B flooded paddy test, ducksalad; conditions: Heteranthera limosa; 250 g ai/ha, Flood; visual rating after 13 to 15 days; scale 0 to 100, 0 is no effect, 100 is complete control; read-out: Plant response rating, Ducksalad
Procedure, shortened: as §2

[13] = system: barnyardgrass (Echinochloa crus-galli); assay: Test B flooded paddy test, barnyardgrass; conditions: Echinochloa crus-galli; 250 g ai/ha, Flood; visual rating after 13 to 15 days; scale 0 to 100, 0 is no effect, 100 is complete control; read-out: Plant response rating, Barnyardgrass
Procedure, shortened: as §2

SMILES | pest or weed control at 125 g/ha [1] | pest or weed control at 500 g/ha [1] | pest or weed control at 125 g/ha (kochia (Kochia scoparia) [2]) | pest or weed control at 500 g/ha (kochia (Kochia scoparia) [2]) | pest or weed control at 125 g/ha [3] | pest or weed control at 500 g/ha [3] | pest or weed control at 125 g/ha [4] | pest or weed control at 500 g/ha [4] | pest or weed control at 125 g/ha [5] | pest or weed control at 500 g/ha [5] | pest or weed control at 125 g/ha (kochia (Kochia scoparia) [6]) | pest or weed control at 500 g/ha (kochia (Kochia scoparia) [6]) | pest or weed control at 125 g/ha [7] | pest or weed control at 500 g/ha [7] | pest or weed control at 125 g/ha [8] | pest or weed control at 500 g/ha [8] | plant injury at 125 g/ha [9] | plant injury at 500 g/ha [9] | Corn plant response rating (crop injury, 0 = no effect, 100 = complete kill) at 125 g/ha (corn (Zea mays)) | Corn plant response rating (crop injury, 0 = no effect, 100 = complete kill) at 500 g/ha (corn (Zea mays)) | further results
CCCCOc1c(C#N)cccc1Oc1ncc(Cl)cn1 [Compound 35, 2-butoxy-3-[(5-chloro-2-pyrimidinyl)oxy]benzonitrile] | 100% | 100% | 100% | 100% | 10% | 30% | 100% | 100% | 100% | 100% | 100% | 100% | 90% | 90% | 90% | 100% | 10% | 40% | 20% | 70% | pest or weed control at 125 g/ha [10]: 90%; pest or weed control at 500 g/ha [10]: 100%; plant injury at 250 g/ha (rice (Oryza sativa)): 0%; pest or weed control at 250 g/ha [11]: 70%; pest or weed control at 250 g/ha [12]: 65%; pest or weed control at 250 g/ha [13]: 30%
Fc1cccc(Oc2ncc(Cl)cn2)c1OCC(F)(F)F [Compound 28] | 10% | 70% | 0% | 20% | 0% | 0% | 0% | 70% | 0% | 100% | 0% | 10% | 0% | 20% | 30% | 70% | 0% | 0% | 0% | 10% | pest or weed control at 125 g/ha [10]: 0%; pest or weed control at 500 g/ha [10]: 20%; plant injury at 250 g/ha (rice (Oryza sativa)): 0%; pest or weed control at 250 g/ha [11]: 0%; pest or weed control at 250 g/ha [12]: 30%; pest or weed control at 250 g/ha [13]: 0%
N#Cc1cccc(Oc2ncc(Cl)cn2)c1OCC(F)(F)C(F)(F)F [Compound 10, 3-[(5-chloro-2-pyrimidinyl)oxy]-2-(2,2,3,3,3-pentafluoropropoxy)benzonitrile] | 100% | 100% | 100% | 100% | 20% | 10% | 100% | 100% | 100% | 100% | 100% | 100% | 100% | 100% | 100% | 100% | 30% | 90% | 70% | 100% | pest or weed control at 125 g/ha [10]: 90%; pest or weed control at 500 g/ha [10]: 100%; plant injury at 250 g/ha (rice (Oryza sativa)): 20%; pest or weed control at 250 g/ha [11]: 85%; pest or weed control at 250 g/ha [12]: 70%; pest or weed control at 250 g/ha [13]: 50%
